{"source": "paper PMC9103758", "about": "(International Journal of Molecular Sciences, 2022)", "key": {"[1]": {"target": "T1, VRAC-mediated chloride current (ICl, swell) in HEK293T cells (Homo sapiens, UniProt Q8IWT6)", "T1 construct": "endogenous in cells; host or cells: HEK293T", "T1 sequence (Q8IWT6 1-810)": "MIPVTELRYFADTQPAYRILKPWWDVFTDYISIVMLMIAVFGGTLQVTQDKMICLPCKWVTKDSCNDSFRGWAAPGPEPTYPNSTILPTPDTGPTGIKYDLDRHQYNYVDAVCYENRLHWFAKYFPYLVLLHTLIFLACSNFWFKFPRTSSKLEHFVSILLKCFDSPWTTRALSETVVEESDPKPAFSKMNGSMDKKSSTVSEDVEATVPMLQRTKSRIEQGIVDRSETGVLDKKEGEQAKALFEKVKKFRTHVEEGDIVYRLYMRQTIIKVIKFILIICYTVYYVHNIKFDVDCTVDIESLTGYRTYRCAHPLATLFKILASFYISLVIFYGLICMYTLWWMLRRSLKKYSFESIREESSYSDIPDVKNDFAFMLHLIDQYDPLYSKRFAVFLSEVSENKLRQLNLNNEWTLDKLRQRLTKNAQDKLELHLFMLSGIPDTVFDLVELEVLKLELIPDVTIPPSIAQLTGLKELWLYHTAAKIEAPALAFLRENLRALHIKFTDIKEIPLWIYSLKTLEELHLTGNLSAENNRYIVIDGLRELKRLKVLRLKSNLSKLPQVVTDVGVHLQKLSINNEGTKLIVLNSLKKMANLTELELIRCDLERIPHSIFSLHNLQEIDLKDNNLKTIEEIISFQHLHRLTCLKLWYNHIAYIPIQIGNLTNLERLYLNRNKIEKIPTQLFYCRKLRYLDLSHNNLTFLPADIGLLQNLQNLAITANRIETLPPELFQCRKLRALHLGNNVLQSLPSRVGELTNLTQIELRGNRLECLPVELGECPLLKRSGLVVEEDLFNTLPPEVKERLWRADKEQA", "test": "Whole-cell voltage-clamp of ICl,swell in HEK293T cells", "format": "cell-based", "settings": "dose-dependent", "quoted_text": "(A) Whole-cell membrane currents were recorded at a holding potential of −50 mV by voltage steps ranging from −120 to 120 mV (in steps of 20 mV) in HEK293T cells. […] (C) Whole-cell VRAC currents were recorded at a holding potential of −50 mV by voltage steps ranging from −100 to 100 mV (in steps of 20 mV) in LN215 cells.\nFor volume-regulated anion channel (VRAC) currents measurement, the isotonic bath solution contained (in mM): 150 NaCl, 6 KCL, 1.5 CaCl2, 1 MgCl2, 10 glucose, 1 HEPES, and pH 7.4 with NaOH (320 mOsm). […] The pipette solution contained (in mM): 40 CsCl, 100 Cs-methanesulfonate, 0.5 EGTA, 1 MgCl2, 1.9 CaCl2, 5 EGTA, 4 Tris−ATP, 10 HEPES, and pH 7.2 with CsOH (290 mOsm). Pipettes were pulled from borosilicate glass and had resistances of 3–5 MΩ after fire polishing. Seal resistances were between 3 and 10 GΩ. The liquid junction potential (~2.4 mV) was not corrected. After establishing the whole-cell configuration, whole-cell capacitance and series resistance were compensated with the amplifier circuitry. VRAC was activated by exposing LN215 cells to a 25% hypotonic bath solution. Whole-cell currents were elicited by applying hyperpolarizing and depolarizing voltage pulses from a holding potential of 0 mV to potentials between −100 mV and +100 mV or −120 mV and +120 mV in steps of 20 mV. Recordings were made at room temperature. […]"}, "[2]": {"target": "T2, VRAC (Homo sapiens, UniProt Q8IWT6)", "T2 sequence (Q8IWT6 1-810)": "T1 sequence (Q8IWT6 1-810)", "test": "cell-based", "settings": "LN215 cells"}, "[3]": {"test_system": "NIH-3T3 cells", "test": "Cell viability (MTS/MTT) in NIH-3T3 cells", "format": "cell-based", "settings": "24 h, up to/at 30 μM", "protocol": "[…]. (A) Structure of VI-116. (B) Representative YFP fluorescence traces. The inhibitory effects of VI-116 on VRAC activity were determined using YFP fluorescence assay in LN215 cells. VRAC was activated by application of […] solution for 5 min. (C) Summary of VRAC dose-response (mean ± S.E., n = 4). (D) Summary of VRAC dose−response with 10% FBS (mean ± S.E., n = 4). […].\nNIH-3T3 cells were plated on 96-well microplates. After 24 h incubation, cells were treated with VI-116 or DCPIB and incubated for 24 h. The culture medium and the compounds were changed every 12 h. To assess cell proliferation, the cells were incubated with MTS for 1 h. The soluble formazan produced by the cellular reduction of MTS was quantified by measuring the absorbance at 490 nm with an Infinite M200 (Tecan, Grödig, Austria) microplate reader. MTS assay was performed using a CellTiter 96 Aqueous One Solution Cell Proliferation Assay kit (Promega, Madison, WI, USA)."}, "[4]": {"target": "T3, human CFTR (Homo sapiens, UniProt P13569)", "T3 construct": "expressed in transfected cells; host or cells: Fisher rat thyroid (FRT) cells", "T3 sequence (P13569 whole entry)": "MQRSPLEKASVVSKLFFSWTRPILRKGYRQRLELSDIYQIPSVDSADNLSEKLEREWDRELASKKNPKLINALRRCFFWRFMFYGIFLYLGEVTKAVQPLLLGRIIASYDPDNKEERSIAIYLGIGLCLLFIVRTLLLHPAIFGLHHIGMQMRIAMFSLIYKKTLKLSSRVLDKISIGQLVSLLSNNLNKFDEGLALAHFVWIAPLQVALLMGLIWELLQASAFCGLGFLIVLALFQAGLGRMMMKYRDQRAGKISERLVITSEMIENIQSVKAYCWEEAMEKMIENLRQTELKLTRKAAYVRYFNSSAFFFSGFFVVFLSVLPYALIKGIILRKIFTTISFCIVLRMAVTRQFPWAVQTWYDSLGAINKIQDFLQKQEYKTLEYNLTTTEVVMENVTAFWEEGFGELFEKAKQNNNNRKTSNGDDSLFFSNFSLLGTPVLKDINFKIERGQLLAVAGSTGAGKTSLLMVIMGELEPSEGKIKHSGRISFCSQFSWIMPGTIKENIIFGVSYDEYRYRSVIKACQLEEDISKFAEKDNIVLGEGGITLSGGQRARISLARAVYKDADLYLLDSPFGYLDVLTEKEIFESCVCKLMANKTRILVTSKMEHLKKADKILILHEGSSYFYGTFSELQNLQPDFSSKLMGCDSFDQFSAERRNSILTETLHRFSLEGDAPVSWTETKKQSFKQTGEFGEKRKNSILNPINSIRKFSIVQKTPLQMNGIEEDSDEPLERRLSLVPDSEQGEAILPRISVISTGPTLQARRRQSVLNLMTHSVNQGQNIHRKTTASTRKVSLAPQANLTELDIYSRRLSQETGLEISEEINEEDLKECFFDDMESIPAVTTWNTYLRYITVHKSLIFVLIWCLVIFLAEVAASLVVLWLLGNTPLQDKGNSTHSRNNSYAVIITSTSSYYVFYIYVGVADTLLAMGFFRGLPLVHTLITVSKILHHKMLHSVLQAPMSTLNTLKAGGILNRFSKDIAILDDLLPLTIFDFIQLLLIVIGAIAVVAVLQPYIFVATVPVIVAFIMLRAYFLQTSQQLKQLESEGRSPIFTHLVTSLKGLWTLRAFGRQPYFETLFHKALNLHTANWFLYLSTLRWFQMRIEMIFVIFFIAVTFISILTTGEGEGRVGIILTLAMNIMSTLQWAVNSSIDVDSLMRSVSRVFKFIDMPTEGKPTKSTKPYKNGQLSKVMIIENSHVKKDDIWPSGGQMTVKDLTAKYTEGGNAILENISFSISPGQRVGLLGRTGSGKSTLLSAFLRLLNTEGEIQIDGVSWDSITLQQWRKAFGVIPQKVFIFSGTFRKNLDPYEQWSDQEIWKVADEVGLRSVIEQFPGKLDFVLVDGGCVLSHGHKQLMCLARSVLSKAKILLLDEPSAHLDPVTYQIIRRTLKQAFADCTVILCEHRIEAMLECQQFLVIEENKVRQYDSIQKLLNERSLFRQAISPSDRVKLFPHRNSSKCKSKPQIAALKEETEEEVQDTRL", "test": "Apical membrane current of CFTR in FRT cells expressing human CFTR", "format": "cell-based", "settings": "apical membrane current, FRT cells expressing human CFTR, 20 μM forskolin, n = 5; read-out: CFTR chloride channel IC50", "description": "[…]. (C) Summary of dose-response (mean ± S.E., n = 5). […]. (F) Summary of dose−response (mean ± S.E., n = 6).\nSnapwell inserts containing ANO1(abc) or CFTR-expressing FRT cells were mounted in Ussing chambers (Physiological Instruments, San Diego, CA). The basolateral hemichamber was filled with buffer solution (in mM): 120 NaCl, 5 KCl, 1 MgCl2, 1 CaCl2, 10 D-glucose, 2.5 HEPES, and 25 NaHCO3 (pH 7.4). The apical hemichamber was filled with buffer solution (in mM): 60 NaCl, 60 Na-gluconate, 5 KCl, 1 MgCl2, 1 CaCl2, 10 D-glucose, 2.5 HEPES, and 25 NaHCO3 (pH 7.4). FRT cells were bathed for a 10 min stabilization period and gassed with 5% CO2 and 95% O2 at 37 °C. The apical membrane current was recorded with an EVC4000 Multi-Channel V/I Clamp (World Precision Instruments, Sarasota, FL, USA) and a PowerLab 4/35 (AD Instruments, Castle Hill, Australia)."}, "[5]": {"target": "T2, VRAC"}, "[6]": {"target": "T4, hERG K+ channel (Homo sapiens, UniProt Q12809)", "T4 construct": "expressed in transfected cells; called HEK293", "T4 sequence (Q12809 whole entry)": "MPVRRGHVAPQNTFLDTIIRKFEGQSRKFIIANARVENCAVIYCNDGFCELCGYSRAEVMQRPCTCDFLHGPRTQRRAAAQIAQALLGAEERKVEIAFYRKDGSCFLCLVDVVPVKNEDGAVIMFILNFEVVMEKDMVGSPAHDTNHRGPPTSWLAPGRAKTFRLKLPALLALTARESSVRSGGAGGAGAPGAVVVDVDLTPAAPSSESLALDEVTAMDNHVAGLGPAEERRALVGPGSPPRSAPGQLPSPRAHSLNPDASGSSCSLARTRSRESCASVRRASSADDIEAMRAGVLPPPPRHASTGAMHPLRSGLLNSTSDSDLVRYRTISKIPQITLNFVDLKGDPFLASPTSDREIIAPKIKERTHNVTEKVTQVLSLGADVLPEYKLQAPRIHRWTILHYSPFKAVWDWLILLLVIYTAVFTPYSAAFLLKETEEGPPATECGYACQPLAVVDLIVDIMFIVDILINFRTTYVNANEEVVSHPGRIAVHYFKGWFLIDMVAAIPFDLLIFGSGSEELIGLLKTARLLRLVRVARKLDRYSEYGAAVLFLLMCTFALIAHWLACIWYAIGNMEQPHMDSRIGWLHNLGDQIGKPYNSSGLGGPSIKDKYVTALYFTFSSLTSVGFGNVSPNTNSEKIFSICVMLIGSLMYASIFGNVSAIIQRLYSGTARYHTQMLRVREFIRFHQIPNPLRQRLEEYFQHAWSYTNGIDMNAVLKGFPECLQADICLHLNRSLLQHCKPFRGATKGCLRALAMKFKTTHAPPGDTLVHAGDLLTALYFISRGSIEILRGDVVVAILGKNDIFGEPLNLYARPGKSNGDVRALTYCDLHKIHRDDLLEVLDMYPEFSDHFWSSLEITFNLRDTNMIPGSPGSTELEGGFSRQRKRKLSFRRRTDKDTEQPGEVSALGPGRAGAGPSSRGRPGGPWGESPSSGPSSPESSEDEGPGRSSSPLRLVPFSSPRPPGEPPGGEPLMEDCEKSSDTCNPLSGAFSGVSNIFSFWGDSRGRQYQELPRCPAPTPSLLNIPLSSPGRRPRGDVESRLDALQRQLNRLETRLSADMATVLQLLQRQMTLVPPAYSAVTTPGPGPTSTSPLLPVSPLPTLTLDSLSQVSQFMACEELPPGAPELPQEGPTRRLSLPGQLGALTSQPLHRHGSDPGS", "test": "FluxOR thallium flux assay in HEK293T cells expressing hERG", "format": "cell-based", "protocol": "(C) Summary of dose-response (mean ± S.E., n = 5). […] (F) Summary of dose−response (mean ± S.E., n = 6).\nHEK293 cells stably expressing human Kv11.1 (hERG) were cultured in 96-well plates. After 48 h, the cells were incubated at 28 °C for 4 h to increase the membrane expression of hERG. The culture medium was replaced with a 80 μL/well of FluxOR (Invitrogen, Waltham, MA, USA) loading buffer and incubated for 1 h at 37 °C in the dark. After removing the loading buffer, 100 μL of assay buffer was added to each well. […] FluxOR fluorescence (excitation/emission: 490/525 nm) was recorded for 4 s before the addition of 20 μL of stimulus buffer containing thallium ions, and the fluorescence was recorded. FluxOR fluorescence was recorded and analyzed using the FLUOstar Omega microplate reader (BMG Labtech, Ortenberg, Germany) and the MARS Data Analysis Software (BMG Labtech, Ortenberg, Germany). All buffers were prepared according to the manufacturer’s instructions."}}, "note": "Values joined by “and” are separate entries in the source; they are usually repeats but may differ in a detail not shown here. Equal entries are not always repeated.", "data": [{"smiles": "COc1cccc(C(c2c(O)c3ccccc3oc2=O)c2c(O)c3ccccc3oc2=O)c1O", "note": "[VI-116, 3,3′-((2-hydroxy-3-methoxyphenyl)methylene)bis(4-hydroxy-2H-chromen-2-one)]", "values": [{"measurement": "effect on hypotonic perfusion activated ICl, swell", "setting": "[1]", "value": "completely blocked"}, {"measurement": "IC50", "setting": "[2]; VRAC IC50, YFP fluorescence quenching, hypotonic solution 5 min, n = 4", "value": "1.28 µM and 1.27 µM and 1.3 µM"}, {"measurement": "IC50", "setting": "[2]; VRAC IC50 in the presence of 10% FBS, medium containing 10% FBS, 5 min", "value": 6.89, "unit": "µM"}, {"measurement": "effect on cell viability", "setting": "[3]", "value": "did not affect cell viability"}, {"measurement": "IC50", "setting": "[4]", "value": 12.4, "unit": "µM"}, {"measurement": "effect on VRAC", "setting": "[5]; 10 μM", "value": "completely inhibits"}, {"measurement": "effect on VRAC activity (VRAC-mediated I- quenching)", "setting": "[5]; LN215 cells", "value": "fully inhibited"}, {"measurement": "decrease of potency on VRAC with 10% FBS compared to without FBS", "setting": "[5]; LN215 cells, 10% FBS", "value": 5.4, "unit": "fold"}, {"measurement": "effect on hERG K+ channel activity", "setting": "[6]; 10 μM", "value": "minimal inhibitory effect"}, {"measurement": "IC50", "setting": "[6]; thallium flux, HEK293T cells expressing hERG, n = 6", "value": 89.6, "unit": "µM"}]}]}
